This is an account of results in PubChem BioAssay (NCI).

Assay in all cases: NCI tumour cell line growth inhibition, 48 h
The subject of assay [1] is SNB-75 CNS.
The subject of assay [2] is BT-549 breast.
Assay [3] relates to SK-MEL-28 melanoma.
In assay [4] the test system is UACC-62 melanoma.
The subject of assay [5] is COLO 205 colon.
For assay [6], the system named is TK-10 renal.
Assay [7] concerns NCI/ADR-RES ovarian.
The test system of assay [8] is HCC-2998 colon.
Assay [9] has as its system OVCAR-3 ovarian.
Assay [10] has as its system OVCAR-5 ovarian.

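Interpolation was linear, between the two tested concentrations surrounding the appropriate level; five concentrations were tested over 48 hours in 96-well plates. GI50 marks 50% less growth. TGI: total growth inhibition.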 Where only a bound is given, the exact number is not on record here.

As for `CSC1NNC2(C(=O)N1)c1ccccc1-c1ccccc12` (stereo unspecified), the TGI in assay [1], in assay [2], in [3], in [4], in [5] and in [6] was greater than 10 µM throughout. The TGI in assay [7] and in assay [8] was greater than 10 µM throughout.

Regarding `Cc1ccc2c(=O)c(C(=O)N(CCO)CCO)c[nH]c2n1`, the TGI in [9], in [2], in [3], in [4], in [5] and in [6] was greater than 100 µM throughout. Besides, the TGI in [10] and in [7] was greater than 100 µM each time.

For the compound `CCOC(=O)C[n+]1ccc2c([nH]c3cc(OC)ccc32)c1C`, the TGI in assay [9], in [1], in assay [3], in [4], in [5] and in assay [10] was greater than 100 µM throughout. The TGI in assay [7] and in assay [8] was greater than 100 µM throughout.

Consider `COC(=O)[C@@H]1O[C@]12[C@@H](CO[Si](C)(C)C(C)(C)C)O[C@@H](n1cc(C)c(=O)[nH]c1=O)[C@@H]2O[Si](C)(C)C(C)(C)C`, for which the TGI in assay [9] was 31.1 µM; in [1] it was greater than 100 µM; in assay [2], 32.6 µM; in assay [3], 38.5 µM; in [4], 34.8 µM; in assay [5] it was greater than 100 µM. Further, the TGI in assay [6] was greater than 100 µM; in assay [10], 36.6 µM; in [7], 33.8 µM.

Take `CCOC(=O)CCC(C(=O)OCC)n1nnc2cc(Nc3c(C)[n+]([O-])c4ccc(Cl)cc4[n+]3[O-])ccc21` (stereo unspecified): the TGI in assay [9], in assay [1], in assay [2], in [4], in assay [5] and in [6] was greater than 100 µM in each case. The TGI in assay [10] and in [7] was greater than 100 µM throughout.

Turning to `CCCCCCc1cn([C@H]2C[C@H](O)[C@@H](CO)O2)c(=O)[nH]c1=O`, the TGI is greater than 100 µM in assay [9]; greater than 100 µM in assay [1]; greater than 100 µM in [3]; greater than 31.6 µM in [4]; greater than 100 µM in assay [10]; greater than 100 µM in [7]. The TGI in assay [8] is greater than 100 µM.

Consider `COc1ccccc1N1C(=O)/C(=C\c2cccc(Oc3ccccc3)c2)S(=O)(=O)C1c1ccccc1` (stereo unspecified), for which the TGI in assay [9] is greater than 100 µM; in [2], 83.6 µM; in [3], greater than 100 µM; in assay [4] it was greater than 100 µM; in assay [5], 88.3 µM; in assay [6], greater than 100 µM. Besides, the TGI in assay [10] was greater than 100 µM; in [7], 67.6 µM; in assay [8], greater than 100 µM.

Consider `COc1cc(-c2[o+]c3cc(O)cc(OC4OC(CO)C(O)C(O)C4O)c3cc2OC2OC(CO)C(O)C(O)C2O)cc(OC)c1O` (stereo unspecified), for which the TGI in assay [9], in assay [1], in assay [2], in assay [3], in [4] and in assay [5] was greater than 100 µM each time. Moreover, the TGI in assay [6], in assay [10] and in assay [8] was greater than 100 µM each time.

In the case of `C[n+]1c(-c2ccc(/C=N/Nc3ccnc(N/N=C/c4ccc(-c5cn6ccccc6[n+]5C)cc4)n3)cc2)cn2ccccc21`, the TGI in assay [1] is greater than 100 µM; in assay [3], 95.8 µM; in [5] it was greater than 100 µM; in assay [6], greater than 100 µM; in assay [10], greater than 100 µM; in assay [7] it was greater than 100 µM. In [8], this compound showed a TGI greater than 100 µM.

Consider `NC1CCCCC1N.O=S(=O)([O-])CCCN1CCN(CCO)CC1.O=S(=O)([O-])CCCN1CCN(CCO)CC1.[Pt+4]`, for which the GI50 in assay [9] was 4.44 µM; in [1], greater than 39.9 µM; in [3], 8.22 µM; in [4], 6.91 µM; in assay [5], 1.82 µM; in assay [10], 8.22 µM. For the same compound, the GI50 is 1.47 µM in assay [7] and 9.55 µM in [8]. Moreover, the TGI was greater than 36.4 µM in assay [9]; greater than 100 µM in assay [1]; 29.8 µM in assay [3]; 33.7 µM in [4]; 19.6 µM in assay [5]; greater than 38.7 µM in assay [10]. The values for the TGI in [7] and in assay [8] were greater than 37 µM and greater than 63.4 µM, respectively.

As for `CC1(C)N=C(N)N=C(N)N1c1ccc(OCCCOc2ccccc2)c(Cl)c1`, the TGI is 14 µM in assay [9]; 17.3 µM in [1]; 9.16 µM in assay [3]; 18.3 µM in assay [4]; 15.1 µM in [5]; 10.4 µM in [10]. Besides, the TGI is greater than 100 µM in [7] and 13.1 µM in assay [8].

On to `C=C(C(=O)OC)[C@H]1CC/C(C)=C/CC/C(C)=C/CC[C@@]2(C)O[C@@H]2C1`, for which the TGI in assay [9] is 34.4 µM; in assay [1], greater than 100 µM; in assay [3], greater than 100 µM; in assay [4], 26 µM; in assay [5], 28.6 µM; in assay [6], 59 µM. For the same compound, the TGI is 48.2 µM in assay [10], 52.1 µM in [7] and 30.8 µM in assay [8].

For `CC1(C)Oc2ccc3c(=O)c4ccccc4oc3c2C1C(=O)O` (stereo unspecified), the TGI in assay [9], in assay [2], in [4], in assay [5], in assay [6] and in assay [10] was greater than 100 µM in each case. Moreover, the TGI in [7] and in assay [8] was greater than 100 µM in each case.

As for `c1ccc(CNc2ncnc3n[nH]nc23)cc1`, the TGI in [9], in assay [1], in assay [3], in assay [4], in assay [5] and in assay [6] was greater than 100 µM throughout. The TGI in assay [10], in assay [7] and in [8] was greater than 100 µM in each case.

Consider `COc1ccc(NS(=O)c2cccc(C)c2)cc1` (stereo unspecified), for which the TGI in assay [9], in assay [1], in [3], in assay [5], in assay [6] and in assay [10] was greater than 100 µM in each case. The TGI in assay [7] is greater than 100 µM; in [8], 33.6 µM.
